Test results taken from PubChem BioAssay AID220 (DTP/NCI, 2004).
Where “and” joins values, the source holds several entries; their conditions need not be identical. Identical values can stand only once. Results filed as inconclusive are left out.

Tested on: CD8F1 mice, subcutaneous mammary adenocarcinoma, T/C%
Assay: NCI In Vivo Anticancer Drug Screen. Data for tumor model Mammary Adenocarcinoma CD8F1 (subcutaneous) in CD8F1
Details: higher = larger tumour
Method in brief: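 Ratio of treated to vehicle-control outcome, based on either survival or tumor size, in mice bearing transplantable tumors given the test compound.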

[1] = endpoint: median tumor weight change, dose: 125.0 mg/kg/injection, schedule: Q01DX001 (ip), vehicle: Klucel (hydroxypropylcellulose) (HPC)
[2] = endpoint: median tumor weight (est.), dose: 12.5 mg/kg/injection, schedule: Q07DX005 (ip), vehicle: Klucel (hydroxypropylcellulose) (HPC)
[3] = endpoint: median tumor weight (est.), dose: 25.0 mg/kg/injection, schedule: Q07DX005 (ip), vehicle: Klucel (hydroxypropylcellulose) (HPC)
[4] = endpoint: median tumor weight (est.), dose: 50.0 mg/kg/injection, schedule: Q07DX005 (ip), vehicle: Klucel (hydroxypropylcellulose) (HPC)
[5] = endpoint: median tumor weight (est.), dose: 100.0 mg/kg/injection, schedule: Q07DX005 (ip), vehicle: Klucel (hydroxypropylcellulose) (HPC)
[6] = endpoint: median tumor weight (est.), dose: 200.0 mg/kg/injection, schedule: Q07DX005 (ip), vehicle: Klucel (hydroxypropylcellulose) (HPC)

COc1cc(C(=O)c2cc3c(cc2C)OCO3)cc(OC)c1OC
T/C [1]: 59 % of control and 75 % of control
T/C (endpoint: median tumor weight change, dose: 250.0 mg/kg/injection, schedule: Q01DX001 (ip), vehicle: Klucel (hydroxypropylcellulose) (HPC)): 47 % of control and 54 % of control
T/C (endpoint: median tumor weight change, dose: 500.0 mg/kg/injection, schedule: Q01DX001 (ip), vehicle: Klucel (hydroxypropylcellulose) (HPC)): 70 % of control

C=C1C(=O)OCC1C(=O)O (stereo unspecified)
T/C (endpoint: median tumor weight change, dose: 15.62 mg/kg/injection, schedule: Q01DX001 (ip), vehicle: suspension in saline): 101 % of control
T/C (endpoint: median tumor weight change, dose: 62.5 mg/kg/injection, schedule: Q01DX001 (ip), vehicle: suspension in saline): 89 % of control
T/C (endpoint: median tumor weight change, dose: 125.0 mg/kg/injection, schedule: Q01DX001 (ip), vehicle: suspension in saline): 123 % of control

CC(C)(C)c1ccc(CN2CCN(C(c3ccccc3)c3ccc(Cl)cc3)CC2)cc1 (stereo unspecified)
T/C (endpoint: median tumor weight change, dose: 8.0 mg/kg/injection, schedule: Q01DX001 (ip), vehicle: Klucel (hydroxypropylcellulose) (HPC)): 98 % of control
T/C (endpoint: median tumor weight change, dose: 16.0 mg/kg/injection, schedule: Q01DX001 (ip), vehicle: Klucel (hydroxypropylcellulose) (HPC)): 96 % of control
T/C (endpoint: median tumor weight change, dose: 32.0 mg/kg/injection, schedule: Q01DX001 (ip), vehicle: Klucel (hydroxypropylcellulose) (HPC)): 101 % of control
T/C (endpoint: median tumor weight change, dose: 64.0 mg/kg/injection, schedule: Q01DX001 (ip), vehicle: Klucel (hydroxypropylcellulose) (HPC)): 108 % of control
T/C (endpoint: median tumor weight change, dose: 128.0 mg/kg/injection, schedule: Q01DX001 (ip), vehicle: Klucel (hydroxypropylcellulose) (HPC)): 55 % of control
T/C (endpoint: median tumor weight change, dose: 256.0 mg/kg/injection, schedule: Q01DX001 (ip), vehicle: Klucel (hydroxypropylcellulose) (HPC)): 84 % of control

N=c1ccn2c(n1)OC1C(O)C(CO)OC12 (stereo unspecified)
T/C (endpoint: median tumor weight (est.), dose: 25.0 mg/kg/injection, schedule: Q07DX005 (ip), vehicle: saline): 80 % of control
T/C (endpoint: median tumor weight (est.), dose: 50.0 mg/kg/injection, schedule: Q07DX005 (ip), vehicle: saline): 159 % of control
T/C (endpoint: median tumor weight (est.), dose: 100.0 mg/kg/injection, schedule: Q07DX005 (ip), vehicle: saline): 111 % of control
T/C (endpoint: median tumor weight (est.), dose: 100.0 mg/kg/injection, schedule: Q07DX005 (ip), vehicle: suspension in saline): 81 % of control
T/C (endpoint: median tumor weight (est.), dose: 200.0 mg/kg/injection, schedule: Q07DX005 (ip), vehicle: saline): 53 % of control
T/C (endpoint: median tumor weight (est.), dose: 200.0 mg/kg/injection, schedule: Q07DX005 (ip), vehicle: suspension in saline): 109 % of control
T/C (endpoint: median tumor weight (est.), dose: 400.0 mg/kg/injection, schedule: Q07DX005 (ip), vehicle: saline): 22 % of control
T/C (endpoint: median tumor weight (est.), dose: 400.0 mg/kg/injection, schedule: Q07DX005 (ip), vehicle: suspension in saline): 70 % of control
T/C (endpoint: median tumor weight (est.), dose: 600.0 mg/kg/injection, schedule: Q07DX005 (ip), vehicle: saline): 21 % of control
T/C (endpoint: median tumor weight (est.), dose: 800.0 mg/kg/injection, schedule: Q07DX005 (ip), vehicle: suspension in saline): 52 % of control
T/C (endpoint: median tumor weight (est.), dose: 1600.0 mg/kg/injection, schedule: Q07DX005 (ip), vehicle: suspension in saline): 35 % of control

C=C(C(=O)O)C(N)C(=O)O (stereo unspecified)
T/C (endpoint: median tumor weight change, dose: 62.5 mg/kg/injection, schedule: Q01DX001 (ip), vehicle: saline): 96 % of control
T/C (endpoint: median tumor weight change, dose: 125.0 mg/kg/injection, schedule: Q01DX001 (ip), vehicle: saline): 100 % of control
T/C (endpoint: median tumor weight change, dose: 250.0 mg/kg/injection, schedule: Q01DX001 (ip), vehicle: saline): 61 % of control
T/C (endpoint: median tumor weight change, dose: 500.0 mg/kg/injection, schedule: Q01DX001 (ip), vehicle: saline): 71 % of control

OCC1OC(n2cnc3c(NO)ncnc32)C(O)C1O (stereo unspecified)
T/C [2]: 104 % of control
T/C [3]: 66 % of control
T/C [4]: 85 % of control
T/C [5]: 91 % of control
T/C [6]: 69 % of control
T/C (endpoint: median tumor weight (est.), dose: 400.0 mg/kg/injection, schedule: Q07DX005 (ip), vehicle: Klucel (hydroxypropylcellulose) (HPC)): 113 % of control

COC1=C(C)C(=O)C2=C(C1=O)C(CO)N1C(C#N)C3CC4C(C1C2N1CCOC41)N3C (stereo unspecified)
T/C (endpoint: median tumor weight change, dose: 0.62 mg/kg/injection, schedule: Q01DX001 (ip), vehicle: saline + alcohol): 120 % of control
T/C (endpoint: median tumor weight change, dose: 1.25 mg/kg/injection, schedule: Q01DX001 (ip), vehicle: saline + alcohol): 98 % of control and 107 % of control and 116 % of control

Cc1cc(Nc2ccc3c(c2)OCO3)c2cc3c(cc2n1)OCO3
T/C [1]: 54 % of control

Cc1ccc2c(ccc(CC(=S)[S-])[n+]2C)c1
T/C [2]: 72 % of control and 97 % of control
T/C [3]: 90 % of control
T/C [4]: 102 % of control and 121 % of control
T/C [5]: 46 % of control and 71 % of control
T/C [6]: 32 % of control

CCC1CC2CN(CCc3c([nH]c4ccccc34)C(C(=O)OC)(c3cc4c(cc3OC)N(C)C3C(O)(C(=O)OC)C(OC(C)=O)C5(CC)C=CCN6CCC43C65)C2)C1 (stereo unspecified)
T/C (endpoint: median tumor weight change, dose: 0.31 mg/kg/injection, schedule: Q01DX001 (ip), vehicle: suspension in saline): 99 % of control
T/C (endpoint: median tumor weight change, dose: 0.62 mg/kg/injection, schedule: Q01DX001 (ip), vehicle: saline): 165 % of control
T/C (endpoint: median tumor weight change, dose: 0.62 mg/kg/injection, schedule: Q01DX001 (ip), vehicle: suspension in saline): 59 % of control
T/C (endpoint: median tumor weight change, dose: 1.25 mg/kg/injection, schedule: Q01DX001 (ip), vehicle: saline): 110 % of control
T/C (endpoint: median tumor weight change, dose: 1.25 mg/kg/injection, schedule: Q01DX001 (ip), vehicle: suspension in saline): 105 % of control
T/C (endpoint: median tumor weight change, dose: 2.5 mg/kg/injection, schedule: Q01DX001 (ip), vehicle: suspension in saline): 88 % of control
T/C (endpoint: median tumor weight change, dose: 5.0 mg/kg/injection, schedule: Q01DX001 (ip), vehicle: saline): 184 % of control
T/C (endpoint: median tumor weight change, dose: 5.0 mg/kg/injection, schedule: Q01DX001 (ip), vehicle: suspension in saline): 109 % of control
T/C (endpoint: median tumor weight change, dose: 10.0 mg/kg/injection, schedule: Q01DX001 (ip), vehicle: saline): 99 % of control
T/C (endpoint: median tumor weight change, dose: 10.0 mg/kg/injection, schedule: Q01DX001 (ip), vehicle: suspension in saline): 70 % of control

COc1cc2oc(=O)ccc2cc1[C@@H]1OC(=O)C2(C)O[C@@H]12 (stereo partly specified)
T/C (endpoint: median tumor weight (est.), dose: 0.94 mg/kg/injection, schedule: Q07DX005 (ip), vehicle: water): 174 % of control
T/C (endpoint: median tumor weight (est.), dose: 3.75 mg/kg/injection, schedule: Q07DX005 (ip), vehicle: water): 101 % of control
T/C (endpoint: median tumor weight (est.), dose: 7.5 mg/kg/injection, schedule: Q07DX005 (ip), vehicle: water): 105 % of control
T/C (endpoint: median tumor weight (est.), dose: 15.0 mg/kg/injection, schedule: Q07DX005 (ip), vehicle: water): 124 % of control

CCOc1cc2c(cc1C(C)c1ccc(OC)cc1)OCO2 (stereo unspecified)
T/C (endpoint: median tumor weight change, dose: 62.5 mg/kg/injection, schedule: Q01DX001 (ip), vehicle: distilled water + alcohol): 102 % of control
T/C (endpoint: median tumor weight change, dose: 125.0 mg/kg/injection, schedule: Q01DX001 (ip), vehicle: distilled water + alcohol): 62 % of control
T/C (endpoint: median tumor weight change, dose: 250.0 mg/kg/injection, schedule: Q01DX001 (ip), vehicle: distilled water + alcohol): 67 % of control
T/C (endpoint: median tumor weight change, dose: 500.0 mg/kg/injection, schedule: Q01DX001 (ip), vehicle: distilled water + alcohol): 91 % of control

O=C[C@@H](CO)O[C@H](C=O)n1cnc2c(=O)[nH]cnc21
T/C (endpoint: mean tumor weight, dose: 12.5 mg/kg/injection, schedule: Q07DX004 (ip), vehicle: saline with Tween-80): 119 % of control
T/C (endpoint: mean tumor weight, dose: 25.0 mg/kg/injection, schedule: Q07DX004 (ip), vehicle: saline with Tween-80): 98 % of control
T/C (endpoint: mean tumor weight, dose: 50.0 mg/kg/injection, schedule: Q07DX004 (ip), vehicle: saline with Tween-80): 76 % of control
T/C (endpoint: mean tumor weight, dose: 100.0 mg/kg/injection, schedule: Q07DX004 (ip), vehicle: saline with Tween-80): 78 % of control
T/C (endpoint: mean tumor weight, dose: 200.0 mg/kg/injection, schedule: Q07DX004 (ip), vehicle: saline with Tween-80): 100 % of control
T/C (endpoint: mean tumor weight, dose: 400.0 mg/kg/injection, schedule: Q07DX004 (ip), vehicle: saline with Tween-80): 67 % of control
T/C (endpoint: median tumor weight (est.), dose: 12.5 mg/kg/injection, schedule: Q07DX005 (ip), vehicle: saline with Tween-80): 95 % of control
T/C (endpoint: median tumor weight (est.), dose: 25.0 mg/kg/injection, schedule: Q07DX005 (ip), vehicle: saline with Tween-80): 116 % of control
T/C (endpoint: median tumor weight (est.), dose: 50.0 mg/kg/injection, schedule: Q07DX005 (ip), vehicle: saline with Tween-80): 118 % of control
T/C (endpoint: median tumor weight (est.), dose: 100.0 mg/kg/injection, schedule: Q07DX005 (ip), vehicle: saline with Tween-80): 113 % of control
T/C (endpoint: median tumor weight (est.), dose: 200.0 mg/kg/injection, schedule: Q07DX005 (ip), vehicle: saline with Tween-80): 84 % of control
T/C (endpoint: median tumor weight (est.), dose: 400.0 mg/kg/injection, schedule: Q07DX005 (ip), vehicle: saline with Tween-80): 82 % of control
